{
  "source": "patent US10265327B2",
  "about": "“V1A antagonists to treat phase shift sleep disorders” (Hoffmann-La Roche Inc., priority 2013, dated 2019)",
  "system": "C57BL/6J mice",
  "assay": "Behavioural circadian responses (phase shift, period, alpha, locomotor activity) after single oral administration, release into constant darkness",
  "assay_type": "in vivo, mouse",
  "experimental": "In all studies described below, male young-adult C57BL/6J mice (4 weeks old at the beginning of experiments) were used. Animals were exposed to a light-dark cycle (LD) 12:12 (lights on from 8 h to 20 h geographical time; light intensity at 200 lux; during dark period dim red light of 5 lux) in individual cages with food and water ad libitum and temperature (22±1° C.) and humidity (55%±5%) controlled. LD cycle was represented as zeitgeber times (ZT) where ZT0 represents the lights on and ZT12 lights off. When animals were exposed to constant darkness conditions (DD), circadian times (CT) were used as time point references, where CT12 corresponds to activity onset.\nIt was evaluated whether there is a phase window of sensitivity to the V1a receptor antagonist trans-8-chloro-5-methyl-1-(4-pyridin-2-yloxycyclohexyl)-4,6-dihydro-[1,2,4]triazolo[4,3-a][1,4]benzodiazepine (example 1). A group of animals was treated at 2 temporal points (one during the day and one at night). Animals were exposed to LD cycle conditions (at least for 10 days) to obtain a baseline of the rhythm of locomotor activity. 4 groups were selected: (group 1) Sham manipulations, animals into which the cannula was introduced in the oral cavity without any solution delivery; (group 2) vehicle, and […] administration of the V1a receptor antagonist trans-8-chloro-5-methyl-1-(4-pyridin-2-yloxycyclohexyl)-4,6-dihydro-[1,2,4]triazolo[4,3-a][1,4]benzodiazepine (doses of 10 mg/kg and 30 mg/kg). Administrations were performed (orally) at ZT/CT12 (lights off/activity onset; sham, n=5; vehicle n=5; 10 mg/kg n=5; and 30 mg/kg n=5). After the first manipulation at ZT/CT12, animals were immediately exposed to DD conditions and remained at least for 10 days more for behavioural analysis, and then re-entrained to a 12-12 LD cycle, for a minimum of 10 days, to be re-exposed to the second experimental manipulation at ZT/CT0 (lights on/activity offset; sham, n=3; vehicle n=3; 10 mg/kg n=5; and 30 mg/kg n=5).\nA new group of animals was treated at another 2 temporal points different from the previous experiment; ZT/CT6 (6 h after lights on/mid rest period; sham, n=3; vehicle n=4; and 30 mg/kg n=5) and ZT/CT18 (6 h after lights off/mid activity period; sham, n=3; vehicle n=4; and 30 mg/kg n=5). For this experiment (time points ZT/CT6 and ZT/CT18), trans-8-chloro-5-methyl-1-(4-pyridin-2-yloxycyclohexyl)-4,6-dihydro-[1,2,4]triazolo[4,3-a][1,4]benzodiazepine was administrated only at the 30 mg/kg dose. Thus, 3 groups were selected: (Group 1) Sham manipulations, (Group 2) vehicle administrations and (Group 3) trans-8-chloro-5-methyl-1-(4-pyridin-2-yloxycyclohexyl)-4,6-dihydro-[1,2,4]triazolo[4,3-a][1,4]benzodiazepine (30 mg/kg). After manipulations, animals were immediately exposed to DD conditions and remained at least for 10 days more for behavioural analysis, and then re-entrained to a 12-12 LD cycle for a minimum of 10 days.\nThe locomotor activity rhythms were measured using infra-red detectors on the top of the cages and/or running wheels.\nPhase shifts: Phase shifts were measured by fitting two regression lines to the onsets of locomotor activity for 10 days before and 10 days after the manipulation (ClockLab; Actimetrics, Evanston, Ill., USA). A computer algorithm was used to identify the onset of the main period of daily locomotor activity (ClockLab). The data collected on the day following the manipulation (sham, vehicle or drug administration) was excluded from the line fits to ensure that the circadian phase was in steady state. Phase shift was defined as the difference (in hours) between the pre-stimulus line and the post-stimulus line. The magnitude of the phase shifts was fitted by linear regression to the onsets, considering 10 cycles before (LD) and 10 cycles after compound administration when animals were released in constant darkness (DD; Aschoff Type II procedure to evaluate phase shifts; Mrosovsky, 1996b). […]",
  "data": [
    {"molecule": "CN1Cc2cc(Cl)ccc2-n2c(nnc2[C@H]2CC[C@H](Oc3ccccn3)CC2)C1", "note": "[Example 1, trans-8-chloro-5-methyl-1-(4-pyridin-2-yloxycyclohexyl)-4,6-dihydro-[1,2,4]triazolo[4,3-a][1,4]benzodiazepine]", "values": [
      {"measurement": "locomotor activity change after administration", "setting": "10 mg/kg or 30 mg/kg oral, ZT/CT12 and ZT/CT0", "value": "No significant locomotor activity change"},
      {"measurement": "endogenous period of locomotor activity", "setting": "10 mg/kg or 30 mg/kg oral, ZT/CT12 and ZT/CT0, constant darkness", "value": "no changes"},
      {"measurement": "endogenous period of locomotion", "setting": "30 mg/kg oral, ZT/CT18 and ZT/CT6", "value": "not significantly different between groups"},
      {"measurement": "alpha (duration of active period), difference between groups", "setting": "30 mg/kg oral, ZT/CT18 or ZT/CT6", "value": "no differences between groups were observed"},
      {"measurement": "behavioural phase shifts (circadian phase)", "setting": "single administration 30 mg/kg oral, at ZT/CT18 and ZT/CT6", "value": "no significant effect on the circadian phase"},
      {"measurement": "behavioural phase-shifts (circadian phase)", "setting": "single oral administration, 10 mg/kg or 30 mg/kg, at ZT/CT12 and ZT/CT0", "value": "no effect on the circadian phase"},
      {"measurement": "alpha increase (pre vs. post)", "setting": "treated at ZT/CT0, 10 and 30 mg/kg oral, effect vs groups not statistically significant", "value": "~2", "unit": "h"},
      {"measurement": "alpha (duration of active period), difference between groups", "setting": "treated at ZT/CT12, 10 and 30 mg/kg oral", "value": "no differences between groups were observed"}
    ]}
  ]
}
